Earlier results as cited in US6562605B1, “Extraction of water soluble biomaterials from fluids using a carbon dioxide/surfactant mixture” (Genencor International, Inc., priority 1995, dated 2003).
Read-outs that look alike come from different tables or passages of the source.

[1] = to 388 bar, 50° C. printed at first prior art line

| Compound | Solubility in carbon dioxide (at 377 bar) | Solubility in carbon dioxide [1] | further results |
| --- | --- | --- | --- |
| CCCCCCCCS(=O)(=O)[O-].[Na+] [Alkyl sulfonate (Niacet, NAS 08)] |  |  | Solubility in carbon dioxide (to 585 bar): insoluble to 585 bar |
| CCCCCCS(=O)(=O)[O-].[Na+] [Alkyl sulfonate (C6, sodium salt, Fluka)] |  | insoluble to 388 bar (50° C.) |  |
| CCCCCCCCCCCCCC[N+](C)(C)C.[Br-] [Tetradecyl trimethyl ammonium bromide] |  | insoluble to 388 bar |  |

Continued, in another order:

| Solubility in carbon dioxide (at 377 bar) | Compound | Solubility in carbon dioxide [1] | further results |
| --- | --- | --- | --- |
| slightly soluble at 377 bar | Sorbitan monostearate [Sorbitan monostearate (Fluka, Span 60)] |  |  |
| slightly soluble at 377 bar | Sorbitan trioleate [Sorbitan trioleate (Fluka, Span 80)] |  |  |
